{"source": "paper PMC4506051", "about": "“Pharmacokinetic Profiles of Active Ingredients and Its Metabolites Derived from Rikkunshito, a Ghrelin Enhancer, in Healthy Japanese Volunteers: A Cross-Over, Randomized Study” (PLoS ONE, 2015)", "key": {"[1]": {"experiment": "Method validation: stability in blood"}, "[2]": {"experiment": "Method validation: post-preparative stability (autosampler)"}, "[3]": {"experiment": "Method validation: long-term stability in plasma"}, "[4]": {"experiment": "Method validation: stability in standard, stock and working solution"}, "[5]": {"details": "cited from earlier work"}, "[6]": {"experiment": "Dose proportionality (linearity) test by power model for C max and AUC0-last", "details": "for Dose proportionality test using power model, β: rikkunshito 2.5, 5.0 or 7.5 g; for Dose proportionality test using power model, Inference: linear when 90% CI of β included 1, CIlower ≥0.8, and CIupper ≤1.25", "procedure": "The dose proportionality was analyzed via a power model [21, 22]. […] Evaluation of linearity of the dosage-exposure relationship was conducted with Phoenix WinNonlin and SAS 9.2 (SAS Institute, Inc., Cary, NC)."}, "[7]": {"experiment": "Stability of ingredients in gastric pH solution (pH 1.2, 37°C)", "format": "physicochemical", "details": "pH 1.2", "method": "Rikkunshito gradually dissolved in acidic solution (pH 1.2) at 37°C, and the concentration of atractylodin after adding 0.25, 0.5, 1, and 2 h was measured by gas chromatography–mass spectrometry."}, "[8]": {"experiment": "Formation of ingredients derived from rikkunshito in formulation, blood, and urine (S11 Table summary)", "details": "after rikkunshito administration, per ingredient in the formulation"}, "5-HT2BR": {"tested_on": "5-HT2BR", "set-up": "method as in PMID 18439428", "details": "cited from earlier work"}}}
{"compound": "CC1(C)[C@@H](O)CC[C@]2(C)[C@H]3C(=O)C=C4[C@@H]5C[C@@](C)(C(=O)O)CC[C@]5(C)CC[C@@]4(C)[C@]3(C)CC[C@@H]12", "note": "[18β-Glycyrrhetinic acid]", "values": [{"measurement": "Stability in blood, RR", "setting": "[1]; 1600 pg/mL, at room temperature for 2 h", "value": 104.2, "unit": "%"}, {"measurement": "Stability in blood, RR", "setting": "[1]; 1600 pg/mL, on ice for 2 h", "value": 108.8, "unit": "%"}, {"measurement": "Stability in blood, RR", "setting": "[1]; 64000 pg/mL, at room temperature for 2 h", "value": 98.2, "unit": "%"}, {"measurement": "Stability in blood, RR", "setting": "[1]; 64000 pg/mL, on ice for 2 h", "value": 99.1, "unit": "%"}, {"measurement": "Post-preparative stability, RR", "setting": "[2]; 1600 pg/mL, autosampler set at 4°C for 24 h", "value": 106.0, "unit": "%"}, {"measurement": "Post-preparative stability, RR", "setting": "[2]; 1600 pg/mL, autosampler set at 4°C for 48 h", "value": 110.8, "unit": "%"}, {"measurement": "Post-preparative stability, RR", "setting": "[2]; 64000 pg/mL, autosampler set at 4°C for 24 h", "value": 104.9, "unit": "%"}, {"measurement": "Post-preparative stability, RR", "setting": "[2]; 64000 pg/mL, autosampler set at 4°C for 48 h", "value": 111.4, "unit": "%"}, {"measurement": "Long-term stability, RR", "setting": "[3]; 1600 pg/mL, freezer (−30°C to −10°C) for 13 days", "value": 102.6, "unit": "%"}, {"measurement": "Long-term stability, RR", "setting": "[3]; 1600 pg/mL, freezer (−30°C to −10°C) for 39 days", "value": 108.3, "unit": "%"}, {"measurement": "Long-term stability, RR", "setting": "[3]; 1600 pg/mL, freezer (−30°C to −10°C) for 228 days", "value": 113.5, "unit": "%"}, {"measurement": "Long-term stability, RR", "setting": "[3]; 64000 pg/mL, freezer (−30°C to −10°C) for 13 days", "value": 113.1, "unit": "%"}, {"measurement": "Long-term stability, RR", "setting": "[3]; 64000 pg/mL, freezer (−30°C to −10°C) for 39 days", "value": 104.4, "unit": "%"}, {"measurement": "Long-term stability, RR", "setting": "[3]; 64000 pg/mL, freezer (−30°C to −10°C) for 228 days", "value": 109.2, "unit": "%"}, {"measurement": "Working solution stability, RR", "setting": "[4]; 8 ng/mL, refrigerator (1°C to 8°C) for 53 days", "value": 108.4, "unit": "%"}, {"measurement": "Working solution stability, RR", "setting": "[4]; 800 ng/mL, refrigerator (1°C to 8°C) for 53 days", "value": 100.7, "unit": "%"}, {"measurement": "Stock solution stability, RR", "setting": "[4]; 0.8 mg/mL, refrigerator (1°C to 8°C) for 54 days", "value": "54 days: 100.0%"}, {"measurement": "Stock solution stability, RR", "setting": "[4]; 0.8 mg/mL, refrigerator (1°C to 8°C) for 129 days", "value": "129 days: 100.0%"}, {"measurement": "half-life", "setting": "[5]; protocol rationale for final sampling time", "value": "approximately 10 h"}, {"measurement": "Dose proportionality test using power model, β", "setting": "[6]; AUC0-last", "value": 0.979}, {"measurement": "Dose proportionality test using power model, β", "setting": "[6]; Cmax", "value": 0.819}]}
{"compound": "COc1ccc(-c2cc(=O)c3c(OC)c(OC)c(OC)c(OC)c3o2)cc1OC", "note": "[Nobiletin]", "values": [{"measurement": "Stability in gastric pH solution, Quantitative value", "setting": "[7]; 0.5 h", "value": 18.1, "unit": "ng/mL"}, {"measurement": "Stability in gastric pH solution, Quantitative value", "setting": "[7]; 1 h", "value": 21.5, "unit": "ng/mL"}, {"measurement": "Stability in gastric pH solution, Quantitative value", "setting": "[7]; 2 h", "value": 19.6, "unit": "ng/mL"}, {"measurement": "Formation of ingredients: form found in Blood", "setting": "[8]", "value": "Nobiletin"}, {"measurement": "Formation of ingredients: form found in Urine", "setting": "[8]; BQL = below the quantification limit", "value": "BQL"}, {"measurement": "Stability in blood, RR", "setting": "[1]; 8 pg/mL, at room temperature for 2 h", "value": 86.3, "unit": "%"}, {"measurement": "Stability in blood, RR", "setting": "[1]; 8 pg/mL, on ice for 2 h", "value": 91.7, "unit": "%"}, {"measurement": "Stability in blood, RR", "setting": "[1]; 320 pg/mL, at room temperature for 2 h", "value": 99.2, "unit": "%"}, {"measurement": "Stability in blood, RR", "setting": "[1]; 320 pg/mL, on ice for 2 h", "value": 91.3, "unit": "%"}, {"measurement": "Post-preparative stability, RR", "setting": "[2]; 8 pg/mL, autosampler set at 4°C for 24 h", "value": 89.5, "unit": "%"}, {"measurement": "Post-preparative stability, RR", "setting": "[2]; 8 pg/mL, autosampler set at 4°C for 48 h", "value": 87.7, "unit": "%"}, {"measurement": "Post-preparative stability, RR", "setting": "[2]; 320 pg/mL, autosampler set at 4°C for 24 h", "value": 88.0, "unit": "%"}, {"measurement": "Post-preparative stability, RR", "setting": "[2]; 320 pg/mL, autosampler set at 4°C for 48 h", "value": 89.7, "unit": "%"}, {"measurement": "Long-term stability, RR", "setting": "[3]; 8 pg/mL, freezer (−30°C to −10°C) for 13 days", "value": 91.2, "unit": "%"}, {"measurement": "Long-term stability, RR", "setting": "[3]; 8 pg/mL, freezer (−30°C to −10°C) for 39 days", "value": 88.0, "unit": "%"}, {"measurement": "Long-term stability, RR", "setting": "[3]; 8 pg/mL, freezer (−30°C to −10°C) for 228 days", "value": 89.9, "unit": "%"}, {"measurement": "Long-term stability, RR", "setting": "[3]; 320 pg/mL, freezer (−30°C to −10°C) for 13 days", "value": 114.0, "unit": "%"}, {"measurement": "Long-term stability, RR", "setting": "[3]; 320 pg/mL, freezer (−30°C to −10°C) for 39 days", "value": 114.3, "unit": "%"}, {"measurement": "Long-term stability, RR", "setting": "[3]; 320 pg/mL, freezer (−30°C to −10°C) for 228 days", "value": 103.2, "unit": "%"}, {"measurement": "Working solution stability, RR", "setting": "[4]; 0.04 ng/mL, refrigerator (1°C to 8°C) for 53 days", "value": 95.0, "unit": "%"}, {"measurement": "Working solution stability, RR", "setting": "[4]; 0.04 ng/mL, refrigerator (1°C to 8°C) for 128 days", "value": 89.0, "unit": "%"}, {"measurement": "Working solution stability, RR", "setting": "[4]; 4 ng/mL, refrigerator (1°C to 8°C) for 53 days", "value": 102.6, "unit": "%"}, {"measurement": "Working solution stability, RR", "setting": "[4]; 4 ng/mL, refrigerator (1°C to 8°C) for 128 days", "value": 109.6, "unit": "%"}, {"measurement": "Stock solution stability, RR", "setting": "[4]; 0.1 mg/mL, refrigerator (1°C to 8°C) for 54 days", "value": "54 days: 99.8%"}, {"measurement": "Stock solution stability, RR", "setting": "[4]; 0.1 mg/mL, refrigerator (1°C to 8°C) for 129 days", "value": "129 days: 89.1%"}, {"measurement": "Maximum plasma concentration in the preliminary pharmacokinetics study", "setting": "[5]; in vivo", "value": "0.0626 ± 0.0436", "unit": "ng/mL"}, {"measurement": "Dose proportionality test using power model, Inference", "setting": "[6]; AUC0-last", "value": "Nonlinear"}, {"measurement": "Dose proportionality test using power model, β", "setting": "[6]; AUC0-last", "value": 0.604}, {"measurement": "Dose proportionality test using power model, Inference", "setting": "[6]; Cmax", "value": "Nonlinear"}, {"measurement": "Dose proportionality test using power model, β", "setting": "[6]; Cmax", "value": 0.701}, {"measurement": "5-HT2BR inhibitory/antagonistic activity", "setting": "5-HT2BR", "value": "most potent 5-HT2BR antagonistic activity among all rikkunshito ingredients"}]}
